Laboratory results from the supplement of paper PMC10733146.

Legend:
Experiment in all cases: viability relative to DMSO control (fraction); higher = less drug effect (more viable cells)
Settings in all cases: 48 h
[1] = system: primary AML patient cells (S037)
How it was run: (§1)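 Viability was measured as CellTiter-Glo luminescence relative to the median of 16 inner DMSO wells. Primary mononuclear tumour cells, fresh or cryopreserved, were Ficoll-isolated from blood or bone marrow or taken from processed lymph node. They were seeded at 4 × 10^4 cells per well into 384-well plates holding pre-plated compounds at five concentrations, one well each, and kept in RPMI-1640 with penicillin/streptomycin, L-glutamine and human serum at 37 °C and 5% CO2 for 48 h.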

[2] = system: primary AML patient cells (S025)
How it was run: as §1

[3] = system: primary AML patient cells (S072)
How it was run: as §1

[4] = system: primary AML patient cells (S079)
How it was run: as §1

[5] = system: primary MCL patient cells (S053)
How it was run: as §1

[6] = system: primary ALL patient cells (S048)
How it was run: as §1

[7] = system: primary AML patient cells (S017)
How it was run: as §1

[8] = system: primary AML patient cells (S056)
How it was run: as §1

[9] = system: primary AML patient cells (S012)
How it was run: as §1

[10] = system: primary AML patient cells (S019)
How it was run: as §1

[11] = system: primary CLL patient cells (S031)
How it was run: as §1

[12] = system: primary AML patient cells (S002)
How it was run: as §1

[13] = system: primary FL patient cells (S022)
How it was run: as §1

[14] = system: primary AML patient cells (S089)
How it was run: as §1

[15] = system: primary BL patient cells (S005)
How it was run: as §1

[16] = system: primary AML patient cells (S085)
How it was run: as §1

[17] = system: primary AML patient cells (S091)
How it was run: as §1

[18] = system: primary AML patient cells (S071)
How it was run: as §1

[19] = system: primary MCL patient cells (S068)
How it was run: as §1

[20] = system: primary CLL patient cells (S043)
How it was run: as §1

## COc1ccc(C2=N[C@@H](c3ccc(Cl)cc3)[C@@H](c3ccc(Cl)cc3)N2C(=O)N2CCNC(=O)C2)c(OC(C)C)c1 [Nutlin-3a]
[1]; 0.032 µM
  viability: 0.982
[1]; 0.16 µM
  viability: 0.974
[1]; 0.8 µM
  viability: 0.964
[1]; 4 µM
  viability: 0.742
[1]; 20 µM
  viability: 0.421
[2]; 0.032 µM
  viability: 0.961
[2]; 0.16 µM
  viability: 0.947
[2]; 0.8 µM
  viability: 0.788
[2]; 4 µM
  viability: 0.346
[2]; 20 µM
  viability: 0.0996
[3]; 0.032 µM
  viability: 1.04
[3]; 0.16 µM
  viability: 0.956
[3]; 0.8 µM
  viability: 0.875
[3]; 4 µM
  viability: 0.78
[3]; 20 µM
  viability: 0.693
[4]; 0.032 µM
  viability: 1.02
[4]; 0.16 µM
  viability: 1.01
[4]; 0.8 µM
  viability: 0.972
[4]; 4 µM
  viability: 0.868
[4]; 20 µM
  viability: 0.61
[5]; 0.032 µM
  viability: 1.01
[5]; 0.16 µM
  viability: 0.896
[5]; 0.8 µM
  viability: 0.738
[5]; 4 µM
  viability: 0.433
[5]; 20 µM
  viability: 0.282
[6]; 0.032 µM
  viability: 0.97
[6]; 0.16 µM
  viability: 0.995
[6]; 0.8 µM
  viability: 0.881
[6]; 4 µM
  viability: 0.506
[6]; 20 µM
  viability: 0.056
[7]; 0.032 µM
  viability: 1.05
[7]; 0.16 µM
  viability: 0.979
[7]; 0.8 µM
  viability: 1.03
[7]; 4 µM
  viability: 1.03
[7]; 20 µM
  viability: 1.08
[8]; 0.032 µM
  viability: 1.1
[8]; 0.16 µM
  viability: 1.07
[8]; 0.8 µM
  viability: 0.706
[8]; 4 µM
  viability: 0.425
[8]; 20 µM
  viability: 0.45
[9]; 0.032 µM
  viability: 0.945
[9]; 0.16 µM
  viability: 0.946
[9]; 0.8 µM
  viability: 1.03
[9]; 4 µM
  viability: 1.01
[9]; 20 µM
  viability: 0.883
[10]; 0.032 µM
  viability: 1.13
[10]; 0.16 µM
  viability: 1.03
[10]; 0.8 µM
  viability: 1.08
[10]; 4 µM
  viability: 0.546
[10]; 20 µM
  viability: 0.259
[11]; 0.032 µM
  viability: 0.869
[11]; 0.16 µM
  viability: 0.929
[11]; 0.8 µM
  viability: 0.8
[11]; 4 µM
  viability: 0.451
[11]; 20 µM
  viability: 0.089
[12]; 0.032 µM
  viability: 0.891
[12]; 0.16 µM
  viability: 0.91
[12]; 0.8 µM
  viability: 0.726
[12]; 4 µM
  viability: 0.401
[12]; 20 µM
  viability: 0.268
[13]; 0.032 µM
  viability: 0.954
[13]; 0.16 µM
  viability: 0.936
[13]; 0.8 µM
  viability: 1.02
[13]; 4 µM
  viability: 0.881
[13]; 20 µM
  viability: 0.621
[14]; 0.032 µM
  viability: 1.07
[14]; 0.16 µM
  viability: 1.01
[14]; 0.8 µM
  viability: 1.01
[14]; 4 µM
  viability: 0.802
[14]; 20 µM
  viability: 0.511
[15]; 0.032 µM
  viability: 0.962
[15]; 0.16 µM
  viability: 0.887
[15]; 0.8 µM
  viability: 1.01
[15]; 4 µM
  viability: 0.91
[15]; 20 µM
  viability: 0.827
[16]; 0.032 µM
  viability: 1.06
[16]; 0.16 µM
  viability: 1.31
[16]; 0.8 µM
  viability: 0.877
[16]; 4 µM
  viability: 0.509
[16]; 20 µM
  viability: 0.503
[17]; 0.032 µM
  viability: 0.988
[17]; 0.16 µM
  viability: 0.84
[17]; 0.8 µM
  viability: 0.62
[17]; 4 µM
  viability: 0.404
[17]; 20 µM
  viability: 0.365
[18]; 0.032 µM
  viability: 0.982
[18]; 0.16 µM
  viability: 0.78
[18]; 0.8 µM
  viability: 0.342
[18]; 4 µM
  viability: 0.117
[18]; 20 µM
  viability: 0.0641
[19]; 0.032 µM
  viability: 1.17
[19]; 0.16 µM
  viability: 0.988
[19]; 0.8 µM
  viability: 0.987
[19]; 4 µM
  viability: 0.929
[19]; 20 µM
  viability: 0.949
[20]; 0.032 µM
  viability: 1.05
[20]; 0.16 µM
  viability: 1.01
[20]; 0.8 µM
  viability: 1.04
[20]; 4 µM
  viability: 0.894
[20]; 20 µM
  viability: 0.322

## CCc1cnn2c(NCc3ccc[n+]([O-])c3)cc(N3CCCC[C@H]3CCO)nc12 [Dinaciclib]
[1]; 0.0016 µM
  viability: 1.04
[1]; 0.008 µM
  viability: 0.903
[1]; 0.04 µM
  viability: 0.39
[1]; 0.2 µM
  viability: 0.38
[1]; 1 µM
  viability: 0.374
[2]; 0.0016 µM
  viability: 0.976
[2]; 0.008 µM
  viability: 0.286
[2]; 0.04 µM
  viability: 0.063
[2]; 0.2 µM
  viability: 0.0602
[2]; 1 µM
  viability: 0.0589
[3]; 0.0016 µM
  viability: 0.979
[3]; 0.008 µM
  viability: 0.169
[3]; 0.04 µM
  viability: 0.0691
[3]; 0.2 µM
  viability: 0.0617
[3]; 1 µM
  viability: 0.065
[4]; 0.0016 µM
  viability: 1
[4]; 0.008 µM
  viability: 0.153
[4]; 0.04 µM
  viability: 0.028
[4]; 0.2 µM
  viability: 0.0285
[4]; 1 µM
  viability: 0.0293
[5]; 0.0016 µM
  viability: 0.881
[5]; 0.008 µM
  viability: 0.534
[5]; 0.04 µM
  viability: 0.755
[5]; 0.2 µM
  viability: 0.9
[5]; 1 µM
  viability: 1.08
[6]; 0.0016 µM
  viability: 0.839
[6]; 0.008 µM
  viability: 0.127
[6]; 0.04 µM
  viability: 0.0333
[6]; 0.2 µM
  viability: 0.0246
[6]; 1 µM
  viability: 0.0268
[7]; 0.0016 µM
  viability: 0.994
[7]; 0.008 µM
  viability: 0.401
[7]; 0.04 µM
  viability: 0.0509
[7]; 0.2 µM
  viability: 0.0474
[7]; 1 µM
  viability: 0.0503
[8]; 0.0016 µM
  viability: 0.898
[8]; 0.008 µM
  viability: 0.0944
[8]; 0.04 µM
  viability: 0.101
[8]; 0.2 µM
  viability: 0.0868
[8]; 1 µM
  viability: 0.0937
[9]; 0.0016 µM
  viability: 1.1
[9]; 0.008 µM
  viability: 0.473
[9]; 0.04 µM
  viability: 0.0686
[9]; 0.2 µM
  viability: 0.0607
[9]; 1 µM
  viability: 0.0676
[10]; 0.0016 µM
  viability: 1.31
[10]; 0.008 µM
  viability: 0.54
[10]; 0.04 µM
  viability: 0.114
[10]; 0.2 µM
  viability: 0.116
[10]; 1 µM
  viability: 0.126
[11]; 0.0016 µM
  viability: 0.744
[11]; 0.008 µM
  viability: 0.0197
[11]; 0.04 µM
  viability: 0.018
[11]; 0.2 µM
  viability: 0.0169
[11]; 1 µM
  viability: 0.0188
[12]; 0.0016 µM
  viability: 1.17
[12]; 0.008 µM
  viability: 0.272
[12]; 0.04 µM
  viability: 0.277
[12]; 0.2 µM
  viability: 0.265
[12]; 1 µM
  viability: 0.274
[13]; 0.0016 µM
  viability: 1.01
[13]; 0.008 µM
  viability: 0.227
[13]; 0.04 µM
  viability: 0.195
[13]; 0.2 µM
  viability: 0.216
[13]; 1 µM
  viability: 0.269
[14]; 0.0016 µM
  viability: 0.929
[14]; 0.008 µM
  viability: 0.0524
[14]; 0.04 µM
  viability: 0.0434
[14]; 0.2 µM
  viability: 0.0447
[14]; 1 µM
  viability: 0.0498
[15]; 0.0016 µM
  viability: 0.866
[15]; 0.008 µM
  viability: 0.792
[15]; 0.04 µM
  viability: 0.848
[15]; 0.2 µM
  viability: 0.867
[15]; 1 µM
  viability: 1.01
[16]; 0.0016 µM
  viability: 1
[16]; 0.008 µM
  viability: 0.11
[16]; 0.04 µM
  viability: 0.0634
[16]; 0.2 µM
  viability: 0.0552
[16]; 1 µM
  viability: 0.0573
[17]; 0.0016 µM
  viability: 1.07
[17]; 0.008 µM
  viability: 0.171
[17]; 0.04 µM
  viability: 0.0777
[17]; 0.2 µM
  viability: 0.076
[17]; 1 µM
  viability: 0.0799
[18]; 0.0016 µM
  viability: 0.966
[18]; 0.008 µM
  viability: 0.105
[18]; 0.04 µM
  viability: 0.107
[18]; 0.2 µM
  viability: 0.0985
[18]; 1 µM
  viability: 0.0952
[19]; 0.0016 µM
  viability: 0.678
[19]; 0.008 µM
  viability: 0.0624
[19]; 0.04 µM
  viability: 0.0361
[19]; 0.2 µM
  viability: 0.0363
[19]; 1 µM
  viability: 0.0424
[20]; 0.0016 µM
  viability: 1.08
[20]; 0.008 µM
  viability: 0.0742
[20]; 0.04 µM
  viability: 0.0345
[20]; 0.2 µM
  viability: 0.0401
[20]; 1 µM
  viability: 0.0459
